According to patent US20120164148A1, “Compositions Containing JARID1B Inhibitors and Methods for Treating Cancer” (The Wistar Institute, priority 2009, published 2012):

Experiments:
[1] = test system: WM3734^JARID1Bprom-EGFP cells; test: Drug treatment of WM3734 JARID1Bprom-EGFP cells, flow cytometry of J/EGFP+ subpopulation and viable cells; assay type: cell-based, human; details: 72 hours of treatment, clinically relevant doses; threshold set at 5% (DMSO control)
Protocol: Left panels, Relative enrichment of the J/EGFP+subpopulation after 72 hours of treatment with a BRAF inhibitor (PLX4720), bortezomib (VEL), temozolomide (TMZ), or salinomycin (SAL) as determined by flow cytometry. The threshold (dotted line) for the J/EGFP+ subpopulation was set at 5% (DMSO control) based on JARID1B expression studies. Depicted box plots represent three independently performed experiments with flow cytometric determination of J/EGFP expression beyond the indicated threshold. Right panels, The number of viable cells within the total population was decreasing during drug treatment.
Flow Cytometry and Fluorescence Activated Cell Sorting. For detection of JARID1B promoter-driven EGFP signals, adherent cells were harvested with 0.05% trypsin and spheres were dissociated as described herein. Dead cells were excluded by staining for 7-AAD. After sorting, aliquots were microscopically checked and were cultured for a short-time to exclude disproportional enrichment of debris or apoptotic cells. Fluorescence-activated cell sorting was carried out using a CYTOMATION MOFLO cytometer (DakoCytomation). Flow cytometric detection of surface markers was done according to standard procedures. Briefly, cells were fixed in 4% paraformaldehyde (PFA) in PBS for 10 minutes and then were blocked with 1% BSA in PBS for 10 minutes at room temperature. Primary and secondary antibodies were incubated for 10 minutes at room temperature. Before and after antibody incubations, cells were washed three times with 1% BSA in PBS. Samples were analyzed using an EPICS XL instrument (Beckman-Coulter). Monoclonal antibodies were follows: anti-CD20 (APC-conjugated; BD PHARMINGEN), anti-CD133 (PE; Miltenyi Biotech), anti-p75/NGFR (APC; Miltenyi Biotech), and anti-MCAM (FITC; R&D Systems). Isotype-matched mouse APC- (BD PHARMINGEN), PE- (R&D Systems), or FITC-conjugated (R&D Systems) antibodies were used as controls. Flow cytometric isolation of side population cells was performed according to established methods (Goodell, et al. (1996) J. Exp. Med. 183:1797-1806). […]

[2] = test system: WM3734 melanomas; test: Bortezomib treatment of xenotransplanted WM3734 melanomas with JARID1B knockdown; assay type: in vivo, NOD/LtSscidIL2Rγ^null mice; details: 20 μg bortezomib intraperitoneally on days 20, 22, 25, 27; JARID1B knocked-down tumors vs sh scrambled control; p=0.024 (MANOVA)
Protocol: Xenotransplanted WM3734 melanomas (mean tumor volume ˜200 mm^3) were treated with 20 μg bortezomib (dissolved in PBS and injected intraperitoneally) on days 20, 22, 25, and 27 after xenotransplantation.
Xenotransplantation Assays and Metastasis Model. To address continuous tumor maintenance in vivo, serial xenotransplantation assays with JARID1B knockdown vs. control cells were performed in NOD/LtSscidIL2Rγ^null mice. For every passage, 10^4 cells in MATRIGEL®/Tu2% at a 1:1 dilution were injected subcutaneously in mice (5 mice per sample). One passage included: injection, tumor growth, tumor dissection, cell isolation (mechanical and collagenase I/IV treatment) and purification. Melanoma cell purification was done by three-day-puromycin treatment confirmed by MCAM flow cytometry. Verification of knockdown was carried out by QRT-PCR. […] Tumor growth was measured weekly using a caliper and was terminated when the first tumor of the series reached 1000 mm^3. Metastatic progression was measured in a spontaneous metastasis model. […] Formalin-fixed, paraffin-embedded (FFPE) sections of whole lungs were H&E-stained and the numbers of macro- and micrometastases were microscopically determined (20× magnification). Two representative frontal sections per lung were analyzed. […]

[3] = test system: JARID1B; test: Validation of JARID1B shRNA knockdown clones (RNA, protein, BrdU, MTS, cell counts); assay type: cell-based, human; details: out of five shRNA clones
Excerpt: Melanoma Samples and Cell Culture. Fresh human melanoma tissues and cells were obtained according to standard procedures, isolated and maintained in 2% fetal bovine serum (FBS)-substituted melanoma medium (‘Tu2%’) Smalley, et al. (2005) Am. J. Pathol. 166:1541-1554; Satyamoorthy, et al. (1997) Melanoma Res. 7 Suppl 2:S35-42). According to the isolation of neural stem cells and cancer stem cells from brain tumors by culturing of neurospheres (Yuan, et al. (2004) Oncogene 23:9392-9400; Galli, et al. (2004) Cancer Res. 64:7011-7021), melanoma spheres were propagated in mouse embryonic fibroblast (MEF)-conditioned human embryonic stem cell medium (hESCM) according to conventional methods (Fang, et al. (2005) supra). Before use, MEF-conditioned hESCM was mixed with fresh hESCM medium at a 7:3 ratio (‘hESCM4’) and basic fibroblast growth factor was added at 4 ng/ml. Depending on the cell line, sphere formation could be observed 2-6 weeks after starting culture in hESCM4. Spheres were dissociated by collagenase I/IV (Sigma, St. Louis, Mo.) and mechanical treatment, i.e., 200-250 units per ml DMEM (Cellgro) at 37° C. for 10 minutes plus subsequent pipetting. […]
Given the paradox of an increased in vitro self-renewal capacity without any effect on in vivo tumor initiation, it was determined whether JARID1B still could be important for the continuous maintenance of melanomas. […]

Compound	relative enrichment for the J/EGFP+ subpopulation [1]	tumor volume [2]	knockdown phenotype [3]
CC(C)C[C@H](NC(=O)[C@H](Cc1ccccc1)NC(=O)c1cnccn1)B(O)O [bortezomib]	relative enrichment for the J/EGFP+ subpopulation	significantly lower tumor volume	
JARID1B—62: shRNA clone from Sigma targeting the coding sequence of JARID1B, SEQ ID NO:14 (CCGGCGAGATGGAATTAACAGTCTTCTCGAGAAGACTGTTAATTCCATCTCGTTTTT)			significant knockdown phenotypes
sh JARID1B—58: shRNA clone from Sigma targeting the 3′UTR of JARID1B, SEQ ID NO:15 (CCGGCCCACCAATTTGGAAGGCATTCTCGAGAATGCCTTCCAAATTGGTGGGTTTTT)			significant knockdown phenotypes
CC[C@@H](C(=O)[C@@H](C)[C@@H](O)[C@H](C)[C@@H]1O[C@@H]([C@@H](CC)C(=O)O)CC[C@@H]1C)[C@H]1O[C@]2(C=C[C@@H](O)[C@]3(CC[C@@](C)([C@H]4CC[C@](O)(CC)[C@H](C)O4)O3)O2)[C@H](C)C[C@@H]1C [salinomycin]	relative enrichment for the J/EGFP+ subpopulation		
CCCS(=O)(=O)Nc1ccc(F)c(C(=O)c2c[nH]c3ncc(Cl)cc23)c1F [PLX7420]	relative enrichment for the J/EGFP+ subpopulation		
